Test results from ChEMBL document CHEMBL5230126, “Cyclic tailor-made amino acids in the design of modern pharmaceuticals” (Eur J Med Chem, 2020).

Key:
[1] = molecular target: T1, Orexin/Hypocretin receptor type 1 (Homo sapiens) (UniProt O43613); assay: Antagonist activity at human OX1 receptor; settings: filed as antagonist
T1 sequence (whole entry): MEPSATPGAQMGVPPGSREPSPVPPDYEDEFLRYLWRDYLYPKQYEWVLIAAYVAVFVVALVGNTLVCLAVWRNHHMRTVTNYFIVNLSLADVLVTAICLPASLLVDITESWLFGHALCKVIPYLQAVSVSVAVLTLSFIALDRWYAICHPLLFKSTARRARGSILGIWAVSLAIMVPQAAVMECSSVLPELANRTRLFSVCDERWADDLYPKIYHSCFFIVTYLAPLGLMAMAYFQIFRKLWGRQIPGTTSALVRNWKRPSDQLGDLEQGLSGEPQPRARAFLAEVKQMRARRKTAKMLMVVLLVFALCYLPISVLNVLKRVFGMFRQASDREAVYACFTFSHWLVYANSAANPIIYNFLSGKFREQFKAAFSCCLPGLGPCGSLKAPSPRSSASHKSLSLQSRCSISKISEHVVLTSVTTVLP

[2] = Displacement of [125I]-Ang II from rat liver membrane AT1R incubated for 3 hrs; type: cell membranes
[3] = Displacement of [125I]-Ang II from rabbit uterine membrane AT2R incubated for 3 hrs in presence of DuP 753; type: cell membranes, Oryctolagus cuniculus, Uterus
[4] = molecular target: T2, Orexin/Hypocretin receptor type 1 (Homo sapiens, UniProt O43613); assay: Inhibition of human orexin 1
T2 sequence (O43613 whole entry): T1 sequence (whole entry)

Orexin receptor type 2 = molecular target: T3, Orexin receptor type 2 (Homo sapiens, UniProt O43614); assay: Inhibition of human orexin 2
T3 sequence (O43614 whole entry): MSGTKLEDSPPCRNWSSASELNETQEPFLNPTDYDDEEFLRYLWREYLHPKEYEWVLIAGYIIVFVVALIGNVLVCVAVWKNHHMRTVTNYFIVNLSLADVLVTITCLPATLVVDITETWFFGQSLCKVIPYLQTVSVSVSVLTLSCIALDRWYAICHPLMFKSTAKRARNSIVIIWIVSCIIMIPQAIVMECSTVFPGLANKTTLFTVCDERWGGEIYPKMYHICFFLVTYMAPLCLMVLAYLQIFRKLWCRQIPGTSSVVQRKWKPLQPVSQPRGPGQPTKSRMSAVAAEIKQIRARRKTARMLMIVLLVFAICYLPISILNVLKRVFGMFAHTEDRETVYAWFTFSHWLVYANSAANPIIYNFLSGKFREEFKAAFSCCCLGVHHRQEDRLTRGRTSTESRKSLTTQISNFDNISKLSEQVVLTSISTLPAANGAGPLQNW

pKb [1]	IC50 [2]	IC50 [3]	Ki [4]	Ki (Orexin receptor type 2)	Structure (SMILES)
8	–	–	–	–	Cc1ccc(-c2cnccn2)c(C(=O)N2CCC3(CC3)C[C@H]2CNc2cccc(C(F)(F)F)n2)c1
–	> 10000 nM	6.9 nM	–	–	Cc1cc(Cn2cnc3c2C[C@@H](C(=O)O)N(C(=O)C(c2ccccc2)c2ccccc2)C3)ccc1N(C)C
–	> 10000 nM	0.58 nM	–	–	COc1ccc2c(c1OCc1ccccc1)C[C@@H](C(=O)O)N(C(=O)C(c1ccccc1)c1ccccc1)C2 [OLODANRIGAN]
–	–	–	79.4 nM	1580 nM	Cc1ccc(-c2ncccn2)c(C(=O)N2C[C@@H]3C[C@@H]3C[C@H]2CNc2nnc(C(F)(F)F)s2)n1
